Target: T1, Renin (Homo sapiens) (UniProt P00797)
T1 sequence (whole entry): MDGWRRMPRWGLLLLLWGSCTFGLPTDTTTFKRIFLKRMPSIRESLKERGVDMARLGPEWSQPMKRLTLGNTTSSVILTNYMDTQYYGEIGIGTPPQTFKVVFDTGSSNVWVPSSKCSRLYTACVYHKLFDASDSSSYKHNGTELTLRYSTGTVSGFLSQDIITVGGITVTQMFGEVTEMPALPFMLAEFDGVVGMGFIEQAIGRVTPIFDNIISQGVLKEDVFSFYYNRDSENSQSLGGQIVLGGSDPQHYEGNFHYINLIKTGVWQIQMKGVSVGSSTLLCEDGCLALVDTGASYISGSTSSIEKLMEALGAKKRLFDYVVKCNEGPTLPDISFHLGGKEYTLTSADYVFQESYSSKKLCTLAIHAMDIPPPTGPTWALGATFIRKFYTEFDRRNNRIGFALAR
Assay: The compound was evaluated for inhibitory activity against monkey plasma renin at concentration of […]
Type: cell-free
Details: Cercopithecidae, target entry is the homologue from another species

inhibition: 29%
Compound: C=CC[C@H](NC(=O)CNS(=O)(=O)N1CCOCC1)C(=O)N[C@@H](CC1CCC(CCC(C)C)CC1)[C@@H](O)[C@@H](O)CC(C)C (stereo partly specified)

From ChEMBL document CHEMBL1127130, “Peptidomimetic inhibitors of renin incorporating topographically modified isosteres spanning the P1( P3)-P1' sites” (Bioorg Med Chem Lett, 1993)
